Patent publication US8647887B2, “Measuring G protein coupled receptor activation” (Commonwealth Scientific and Industrial Research Organisation, priority 2009, dated 2014)
Several values for one entry are separate records, joined by “and”; a condition that tells them apart may be missing. Equal values may be shown once.

Experiments:
Str112 receptor (TGTR) = experiment: cell-free BRET^2 assay with dual-tagged Str112 (TGTR); type: biochemical, C. elegans; details: 1 μM ligand, 10 nM TGTR; for BRET^2 signal compared to the response of TGTR to water, significance: P≦0.05
Text: (§1) The TGTR sequence flanked by NcoI and NotI restriction sites was synthesised by Genscript. The TGTR sequence was inserted into the NcoI and NotI sites of the pENTR11 vector. These were then recombined into pYES-DEST52 (Invitrogen) using Gateway® technology for subsequent expression in S. cerevisiae.
The same expression protocol was used for the expression of TGTR in InVSC1 as for OGOR expression. The TGTR coding sequence is provided as SEQ ID NO:51, whereas the amino acid sequence is provided as SEQ ID NO:52.
The same RET analysis protocol as described for the OGOR selectivity studies. 1 μM of the ligands pyruvic acid, citric acid, ethyl acetate, acetoin and diacteyl was assayed with 10 nM of TGTR
The bacterial strain OP50 was grown in LB overnight at 37° C. with shaking (200 rpm). E. coli strain OP50 is usually used as a food source for nematode growth in the laboratory (Brenner, 1974). Two assays were performed using the OP50 bacterial culture. The first assay was the addition of 10 μL of the bacterial culture or 10 μL of LB to 10 nM TGTR. The second assay required that 1 mL of the bacterial culture was placed in a microcentrifuge tube and centrifuged at 10000×g for 1 minute. 10 μL of the supernatant, following decanting into a fresh microcentrifuge tube, or 10 μL of LB was added to 10 nM TGTR. Following bacterial sample addition the same protocol was followed as for the OGOR RET analysis.

ODR-10 receptor (OGOR) = experiment: cell-free BRET^2 assay with dual-labelled ODR-10 (OGOR) in yeast membrane preparations; type: biochemical, C. elegans
Procedure: Cells were harvested by centrifugation at 1500×g (4° C.) for 5 minutes, washed in water and resuspended in 4 mL of Dulbecco's phosphate buffered saline (D-PBS) or 1×PBS, containing 1000 mg/L glucose, 36 mg/L sodium pyruvate, calcium and magnesium (Invitrogen). The cells were lysed by French press (˜18000 psi) and the soluble protein fractions were isolated by centrifugation at 9300×g (4° C.) for 15 minutes. Following this the soluble protein fraction was transferred to 13.15 mL polycarbonate thick wall centrifuge tubes and ultracentrifuged at 40,000 rpm (Beckman Coulter L-80 ultra-centrifuge) for 1 hour at 4° C. The supernatant was decanted and the membrane pellet resuspended in 1 mL of D-PBD or 1×PBS, and left overnight at 4° C. to solubilise.
Simultaneous dual emission RET measurements were carried out with a POLARstar OPTIMA microplate reader (BMG LabTech). Simultaneous emission measurements used a BRET^2 filter set (410-80/515-30) with the set respective gains for each channel (3300/4095).
To assess the relative concentrations of BRET^2 tagged receptor samples the fluorescence intensity of the sample was determined from spectral scans and the sample amount normalized by the OGOR fluorescence intensity. To convert GFP^2 intensity into concentration purified GFP^2 protein was assayed at different concentrations to produce a calibration graph relating concentration to fluorescence intensity. […] Rearranging the line of best fit equation (y=271x+233.31) results in conversion of fluorescence intensity to concentration. […]
RET analysis was carried out in 96-well plates (Perkin-Elmer) and involved incubating the specified dual tagged receptor protein (OGOR) for 45 minutes with 1 μM of each particular odorant. […] A background signal was recorded by assaying a sample of D-PBS (or 1×PBS). […]
For BRET measurements Clz400a substrate (5 μM) was added following the 45 minute incubation time and the signal recorded using a 0.50s integration time over a 5 second period. Following addition of Clz400a the well was re-sealed while the signal was recorded to reduce cross-contamination of samples. […]

OGOR mutant (H110Y) = experiment: cell-free BRET^2 assay with OGOR mutant (H110Y), negative control; type: biochemical, C. elegans; details: μM concentrations of diacetyl
Procedure: Site-directed mutagensis was carried out with OGOR in pDONR201 vector (see above) as the double stranded template. The histidine 110 to tyrosine (H110Y) mutation was performed using the Stratagene Quickchange site directed mutagenesis kit according to standard protocols using the following primers; 5′-[…]-3′ (WT) (SEQ ID NO:43) and 5′-[…] GTG-3′ (H110Y antisense) (SEQ ID NO:44).
PCR was performed with Pfx50™ standard ingredients (Invitrogen) and conditions were as follows 94° C. 2 mins, 16 cycles of 94° C. 30 secs, 55° C. 1 minute, 68° C. 6.8 minutes. Following sequencing the OGOR mutant was then subcloned into pYES-DEST52 (Invitrogen) using Gateway® technology (5′ and 3′ attB sites were included in original OGOR sequence) for subsequent expression in S. cerevisiae.
RET analysis was carried out in 96-well plates (Perkin-Elmer) and involved incubating the specified dual tagged receptor protein (OGOR) for 45 minutes with 1 μM of each particular odorant. The final volume was 100 μL and included 10 μL of odorant, receptor protein sample (see ‘Normalization of sample concentration’ section), D-PBS (or 1×PBS) and 5 μL of Clz400a (5 μM). A background signal was recorded by assaying a sample of D-PBS (or 1×PBS). During the incubation time the 96-well plate wells were sealed with Topseal™—A (Packard) with each sample area individually sealed. […]

ODR-10 receptor (OCOY) = experiment: cell-free FRET assay with dual-labelled ODR-10 (OCOY); type: biochemical, C. elegans; details: μM concentrations of diacetyl
Procedure: All spectral scans were recorded with a plate-reading SpectraMax M2 spectrofluorimeter (Molecular Devices). 100 μL aliquots of membrane preparations sample were scanned using 96-well plates (Perkin-Elmer). Fluorescence spectral scans recorded from 450 to 600 nm with an excitation wavelength of 420 nm using a 455 nm emission cut-off filter.
To compare the sensitivity of the BRET^2 system to the FRET system for monitoring GPCR activation the BRET^2 components used to tag the ODR-10 receptor (OGOR) were replaced with FRET components resulting in the insertion of CFP into the 3rd intracellular loop and YFP at the C-terminus (OCOY). The CFP (mCFP) (SEQ ID NO:45) and YFP (mCitrine) (SEQ ID NO:46) derivatives were both monomeric and codon optimized (EUROSCARF) for yeast expression (SEQ ID NOs 47 and 48 respectively).
as §1, with “OCOY” for “TGTR”, “KpnI” for “NcoI”, “XhoI” for “NotI”, “cerevisiae. […]” for “cerevisiae.”
To assess the relative concentrations of dual-tagged receptor samples the fluorescence intensity of the sample was determined from spectral scans and the sample amount normalized by the OCOY fluorescence intensity. […]

whole-cell BRET^2 assay = type: cell-based; details: 1 μM, 45 minutes incubation, P≦0.05
Procedure: FIG. 16. BRET^2 signal upon incubation (45 minutes) with 1 μM of diacetyl (mean±S.D., n=3) monitored using a whole-cell and cell-free assay systems.

[1] = test system: ODR-10 expressing HEK 293 cells; details: cited from earlier work
α2A receptor = molecular target: T1, α2A receptor (Mus musculus, UniProt Q01338); details: 10 nM; cited from earlier work
T1 sequence (Q01338 1-465): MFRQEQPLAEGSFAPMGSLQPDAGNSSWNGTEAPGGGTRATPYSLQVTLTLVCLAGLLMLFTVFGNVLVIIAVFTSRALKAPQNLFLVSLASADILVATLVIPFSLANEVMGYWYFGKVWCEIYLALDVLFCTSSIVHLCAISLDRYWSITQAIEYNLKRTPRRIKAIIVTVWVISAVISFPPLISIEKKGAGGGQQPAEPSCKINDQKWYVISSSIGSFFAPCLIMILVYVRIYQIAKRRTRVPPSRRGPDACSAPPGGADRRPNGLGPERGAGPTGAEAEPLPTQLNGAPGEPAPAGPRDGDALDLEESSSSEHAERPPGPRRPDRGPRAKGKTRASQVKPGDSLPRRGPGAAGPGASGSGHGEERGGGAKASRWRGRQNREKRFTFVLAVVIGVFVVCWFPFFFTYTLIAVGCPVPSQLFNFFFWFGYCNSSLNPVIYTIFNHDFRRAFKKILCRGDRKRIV

PTHR = molecular target: T2, PTHR (Homo sapiens, UniProt Q03431); details: 1 μM; cited from earlier work
T2 sequence (Q03431 27-593): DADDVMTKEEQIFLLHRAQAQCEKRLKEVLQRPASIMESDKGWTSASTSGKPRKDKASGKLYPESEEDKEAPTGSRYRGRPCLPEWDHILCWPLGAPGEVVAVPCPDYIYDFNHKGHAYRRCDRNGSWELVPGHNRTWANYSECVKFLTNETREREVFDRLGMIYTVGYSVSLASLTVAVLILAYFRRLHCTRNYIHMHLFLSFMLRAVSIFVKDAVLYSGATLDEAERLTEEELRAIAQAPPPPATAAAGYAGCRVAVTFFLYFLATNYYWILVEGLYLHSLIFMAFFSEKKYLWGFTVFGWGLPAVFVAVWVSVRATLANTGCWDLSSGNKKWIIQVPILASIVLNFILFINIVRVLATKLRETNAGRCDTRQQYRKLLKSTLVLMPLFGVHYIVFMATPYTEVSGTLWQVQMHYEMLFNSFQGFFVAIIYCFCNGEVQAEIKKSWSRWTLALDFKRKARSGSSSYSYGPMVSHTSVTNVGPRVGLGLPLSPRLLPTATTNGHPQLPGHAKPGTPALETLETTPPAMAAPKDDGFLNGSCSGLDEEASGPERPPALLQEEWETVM

CC(=O)C(C)O (stereo not shown) [acetoin]
increase in the BRET^2 signal (Str112 receptor (TGTR)): 20.8%
BRET^2 signal compared to the response of TGTR to water, significance (Str112 receptor (TGTR)): significantly higher

CC(=O)C(C)=O [diacetyl]
decrease in the BRET^2 signal, cell-free assay system (ODR-10 receptor (OGOR); 1 μM, 45 minutes incubation, Example 7, P≦0.05): 52%
change in BRET^2 signal compared to the solvent (water) response (ODR-10 receptor (OGOR); OGOR, μM concentrations (1 μM) of ligand, 45 minutes incubation, decrease in signal): 37.5% and 32.4%
EC50 expressed as parts per quadrillion (ODR-10 receptor (OGOR); equivalent of the fM EC50): 0.31 ppq
BRET^2 response to diacetyl (OGOR mutant (H110Y)): 4.1%
response versus solvent (water) response, significance (OGOR mutant (H110Y)): not significantly different
reduction in FRET ratio (intensity at 520 nm/intensity at 480 nm) (ODR-10 receptor (OCOY)): 7.6%
response versus solvent (water) response, significance (ODR-10 receptor (OCOY)): significantly different
change in the BRET^2 signal, whole cell assay (whole-cell BRET^2 assay): no significant change
Ca^2+ elevation response ([1]; ODR-10 expressing HEK 293 cells): the only volatile compound to produce a Ca^2+ elevation response
apparent affinity (EC50) as part per million ([1]; expressed in human cells, calcium imaging): ~0.2 ppm
EC50 ([1]; expressed in human cells, calcium imaging, read-out: apparent affinity (EC50) of ODR-10 for diacetyl): 2300 nM

NC[C@H](O)c1ccc(O)c(O)c1 [norepinephrine]
change in the FRET signal upon binding (α2A receptor): ~5%

CC(=O)C(=O)O [pyruvic acid]
BRET^2 signal compared to the response of TGTR to water, significance (Str112 receptor (TGTR)): significantly higher

PTH: parathyroid hormone, agonist of PTHR, literature value
change in the FRET signal upon binding (PTHR): ~20%
